# Laboratory results reported in patent US9630894B2, “Energy efficient method and apparatus for the extraction of biomolecules from dilute aqueous solution” (DYNASEP INC., priority 2012, dated 2017).
# Entries after “also recorded” stand apart in the source; their conditions may differ.
# What was measured:
# fermentation cultures [1] = assay: DME toxicity study: cell growth by absorption at 600 nm (A600); type: cell-based
# Method: (§1) Toxicity studies were performed to determine the effects of DME on fermentation cultures. Cell growth, viability and solvent production were measured to determine what effect DME has on fermentation cultures. Cell growth was monitored by absorption measurements taken at 600 nm (A600). Viability was measured by counting the colony forming units (CFU) after 24 hours. Solvent production was quantified by HPLC.
# (§2) The first round of testing was performed using media that had been sparged with DME gas at 23° C. The amount of DME absorbed into the media was measured by weight gain after sparging. […] Two control cultures were also used for direct comparison of cultures with and without the presence of DME.
# A second round of testing was performed at lower DME concentrations. […] Based on the solvent measurements in Table 8 and Table 9 solvent production was also unaffected by DME at 0.7 wt. %. […] This is apparent after examination of the cell density and solvent production for samples 1-5, 2-1, 2-4 and 2-5 in comparison to the control samples 1-B and 2-B.
# fermentation cultures [2] = assay: DME toxicity study: viability by colony forming units (CFU) after 24 hours; type: cell-based
# Method: as §1, §2
smiles,measurement,setting,value
"COC [DME, dimethyl ether]",effect on growth and solvent production,fermentation cultures [1]; DME above 2.5 wt. % (2.5 to 3 wt. %),substantial decrease; also recorded: more substantially inhibited; also recorded: severely inhibit
same,effect on growth and solvent production,fermentation cultures [1]; DME approximately 1.6 wt. %,some inhibition; also recorded: partially inhibit
same,effect on cell growth and solvent production,fermentation cultures [1]; DME below 0.7 wt. %,did not appear to inhibit growth; also recorded: do not have a noticeable effect; also recorded: have no observable effect; also recorded: no noticeable effect
same,A600,"fermentation cultures [1]; culture 1-1, […] DME, 4 hours",0.184
same,A600,"fermentation cultures [1]; culture 1-1, […] DME, 7 hours",0.241
same,A600,"fermentation cultures [1]; culture 1-1, […] DME, 28 hours",0.137
same,A600,"fermentation cultures [1]; culture 1-1, […] DME, 196 hours",0.075
same,A600,"fermentation cultures [1]; culture 1-2, 3.48% DME, 4 hours",0.205
same,A600,"fermentation cultures [1]; culture 1-2, 3.48% DME, 7 hours",0.194
same,A600,"fermentation cultures [1]; culture 1-2, 3.48% DME, 28 hours",0.175
same,A600,"fermentation cultures [1]; culture 1-2, 3.48% DME, 196 hours",0.39
same,A600 values,"fermentation cultures [1]; culture 1-2, DME 18.1 g/L, 3 hours",0.523
same,A600 values,"fermentation cultures [1]; culture 1-2, DME 18.1 g/L, 24 hours",2.565
same,A600 values,"fermentation cultures [1]; culture 1-2, DME 18.1 g/L, 40 hours",1.82
same,A600 values,"fermentation cultures [1]; culture 1-2, DME 18.1 g/L, 64 hours",1.97
same,A600 values,"fermentation cultures [1]; culture 1-3, DME 19.4 g/L, 3 hours",0.463
same,A600 values,"fermentation cultures [1]; culture 1-3, DME 19.4 g/L, 24 hours",2.695
same,A600 values,"fermentation cultures [1]; culture 1-3, DME 19.4 g/L, 40 hours",2.16
same,A600 values,"fermentation cultures [1]; culture 1-3, DME 19.4 g/L, 64 hours",2.15
same,A600,"fermentation cultures [1]; culture 1-3, […] DME, 4 hours",0.340
same,A600,"fermentation cultures [1]; culture 1-3, […] DME, 7 hours",0.690
same,A600,"fermentation cultures [1]; culture 1-3, […] DME, 22 hours",1.745
same,A600,"fermentation cultures [1]; culture 1-3, […] DME, 28 hours",1.69
same,A600,"fermentation cultures [1]; culture 1-3, […] DME, 196 hours",1.08
same,A600 values,"fermentation cultures [1]; culture 1-4*, DME 43.8 g/L, 3 hours",0.807
same,A600 values,"fermentation cultures [1]; culture 1-4*, DME 43.8 g/L, 24 hours",3.005
same,A600 values,"fermentation cultures [1]; culture 1-4*, DME 43.8 g/L, 40 hours",1.95
same,A600 values,"fermentation cultures [1]; culture 1-4*, DME 43.8 g/L, 64 hours",2.14
same,A600 values,"fermentation cultures [1]; culture 1-5, DME 25.8 g/L, 3 hours",0.543
same,A600 values,"fermentation cultures [1]; culture 1-5, DME 25.8 g/L, 24 hours",1.415
same,A600 values,"fermentation cultures [1]; culture 1-5, DME 25.8 g/L, 40 hours",1.28
same,A600 values,"fermentation cultures [1]; culture 1-5, DME 25.8 g/L, 64 hours",1.26
same,A600 values,"fermentation cultures [1]; culture 2-1, DME 26.0 g/L, 3 hours",0.505
same,A600 values,"fermentation cultures [1]; culture 2-1, DME 26.0 g/L, 24 hours",1.390
same,A600 values,"fermentation cultures [1]; culture 2-1, DME 26.0 g/L, 40 hours",2.48
same,A600 values,"fermentation cultures [1]; culture 2-1, DME 26.0 g/L, 64 hours",2.24
same,A600,"fermentation cultures [1]; culture 2-1, weight % DME printed as ?, 4 hours",0.140
same,A600,"fermentation cultures [1]; culture 2-1, weight % DME printed as ?, 7 hours",0.157
same,A600,"fermentation cultures [1]; culture 2-1, weight % DME printed as ?, 28 hours",0.072
same,A600,"fermentation cultures [1]; culture 2-1, weight % DME printed as ?, 196 hours",0.05
same,A600,"fermentation cultures [1]; culture 2-2, 3.92% DME, 4 hours",0.173
same,A600,"fermentation cultures [1]; culture 2-2, 3.92% DME, 7 hours",0.178
same,A600,"fermentation cultures [1]; culture 2-2, 3.92% DME, 28 hours",0.127
same,A600,"fermentation cultures [1]; culture 2-2, 3.92% DME, 196 hours",0.32
same,A600 values,"fermentation cultures [1]; culture 2-2, DME 6.8 g/L, 3 hours",0.776
same,A600 values,"fermentation cultures [1]; culture 2-2, DME 6.8 g/L, 24 hours",3.755
same,A600 values,"fermentation cultures [1]; culture 2-2, DME 6.8 g/L, 40 hours",1.29
same,A600 values,"fermentation cultures [1]; culture 2-2, DME 6.8 g/L, 64 hours",1.36
same,A600,"fermentation cultures [1]; culture 2-3, 3.72% DME, 4 hours",0.230
same,A600,"fermentation cultures [1]; culture 2-3, 3.72% DME, 7 hours",0.159
same,A600,"fermentation cultures [1]; culture 2-3, 3.72% DME, 28 hours",0.077
same,A600,"fermentation cultures [1]; culture 2-3, 3.72% DME, 196 hours",0.06
same,A600 values,"fermentation cultures [1]; culture 2-3, DME 6.6 g/L, 3 hours",0.783
same,A600 values,"fermentation cultures [1]; culture 2-3, DME 6.6 g/L, 24 hours",3.700
same,A600 values,"fermentation cultures [1]; culture 2-3, DME 6.6 g/L, 40 hours",2.65
same,A600 values,"fermentation cultures [1]; culture 2-3, DME 6.6 g/L, 64 hours",2.63
same,A600 values,"fermentation cultures [1]; culture 2-4, DME 29.1 g/L, 3 hours",0.590
same,A600 values,"fermentation cultures [1]; culture 2-4, DME 29.1 g/L, 24 hours",1.195
same,A600 values,"fermentation cultures [1]; culture 2-4, DME 29.1 g/L, 40 hours",2.63
same,A600 values,"fermentation cultures [1]; culture 2-4, DME 29.1 g/L, 64 hours",2.19
same,A600 values,"fermentation cultures [1]; culture 2-5, DME 27.9 g/L, 3 hours",0.885
same,A600 values,"fermentation cultures [1]; culture 2-5, DME 27.9 g/L, 24 hours",1.735
same,A600 values,"fermentation cultures [1]; culture 2-5, DME 27.9 g/L, 40 hours",1.18
same,A600 values,"fermentation cultures [1]; culture 2-5, DME 27.9 g/L, 64 hours",1.19
same,effect on cell growth,fermentation cultures [1]; media containing 3 to 4 wt. % DME,substantial reduction in cell growth
same,effect on cell viability (CFU),"fermentation cultures [2]; DME approximately 3 wt. %, cultures 1-2 and 1-3",not toxic
same,effect on cell viability (CFU),"fermentation cultures [2]; DME approximately 4 wt. %, second set of cultures",toxicity issues
same,CFU/ml after 24 hours,"fermentation cultures [2]; culture 1-1, […] DME",770 CFU/ml
same,CFU/ml after 24 hours,"fermentation cultures [2]; culture 1-2, 3.48% DME",>10000 CFU/ml
same,CFU/ml after 24 hours,"fermentation cultures [2]; culture 1-3, […] DME",200000 CFU/ml
